ChEMBL document CHEMBL5728709, “Indazole derivatives useful as inhibitors of diacylglyceride O-acyltransferase 2” (2021)

Biological target: T1, Diacylglycerol O-acyltransferase 2 (Homo sapiens, UniProt Q96PD7)
T1 sequence (Q96PD7 whole entry): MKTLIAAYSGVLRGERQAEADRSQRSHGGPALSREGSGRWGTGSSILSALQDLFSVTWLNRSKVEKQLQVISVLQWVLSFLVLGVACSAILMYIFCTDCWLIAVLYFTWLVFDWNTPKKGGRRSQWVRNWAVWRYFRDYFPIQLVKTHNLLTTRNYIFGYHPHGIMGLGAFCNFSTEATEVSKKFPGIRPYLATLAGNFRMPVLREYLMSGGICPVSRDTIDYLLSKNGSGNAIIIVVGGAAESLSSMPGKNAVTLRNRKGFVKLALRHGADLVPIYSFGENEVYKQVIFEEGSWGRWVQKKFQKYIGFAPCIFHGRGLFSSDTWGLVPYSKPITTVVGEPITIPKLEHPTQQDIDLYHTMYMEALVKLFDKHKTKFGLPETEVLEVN
Assay: Enzymatic Activity Assay: DGAT2 activity was determined by measuring the amount of enzymatic product triolein (1,2,3-Tri(cis-9-octadecenoyl)glycerol) using the membrane prep mentioned above. The assay was carried out in deep well 384 plates in a final volume of 40 μL at room temperature. The assay mixture contained the following: assay buffer (100 mM Tris.Cl, pH 7.0, 20 mM MgCl2, 5% ethanol), 25 μM of diolein, 10 μM of oleoyl-CoA and 10 ng/μL of DGAT2 membrane.

CC(C)(C)OC(=O)N1C[C@@H](O)[C@H](NC(=O)c2ccc3c(-c4ccccc4Cl)nn(-c4ccc(F)cc4)c3c2)C1
IC50: 205 nM
